Values of other authors, collected in patent publication US20040063806A1, “Antimicrobial polyalphaolefin composition” (priority 2000, published 2004).
Read-outs that look alike come from different tables or passages of the source.

Tests used:
[1] = system: Streptococcus heamolyticus A; conditions: origin A, medium BHI-A
[2] = system: Mycobacterium tuberculosis; conditions: origin A, medium YA
Citrobacter freundii = conditions: origin A, medium NA
Bacillus subtilis = Bacillus subtilis NCTC 8236, medium NA
Sarcina urea = Sarcina urea ATCC 6473, medium BHI-A
Trochophyton tonsurans = conditions: origin A, medium SMA
Listeria monocytogenes = Listeria monocytogenes ATCC 15313, medium BHI-A
Staphylococcus albus = Staphylococcus albus NCTC 7292, medium NA
Trichophyton cutaneum = conditions: origin A, medium SMA
Aspergillus niger = Aspergillus niger ATCC 6275, medium M
Lactobacillus fermenti = Lactobacillus fermenti ATCC 707, medium MACA
Clostridium sporogenes = conditions: origin A, medium EA
[3] = system: Trichophyton mentsgrophytes; conditions: Trichophyton mentsgrophytes ATCC 9533, medium SMA
[4] = system: Staphylococcus epidermidis; conditions: Staphylococcus epidermidis ATCC 12228, medium M-H
Streptococcus agalactiae = Streptococcus agalactiae NCTC 8181, medium BHI-A
Streptococcus pyogenes = Streptococcus pyogenes ATCC 21059, medium M-H
Corynebacterium acnes = conditions: Corynebacterium acnes* ATCC 6919, medium BHI-A
Salmonella paratyphi A = Salmonella paratyphi A NCTC 5322, medium NA
Clostridium perfringens = Clostridium perfringens NCTC 3110, medium EA
Loefferella pseudomallei = Loefferella pseudomallei NCIB 10230, medium NA
Clostridium tetani = Clostridium tetani NCTC 9571, medium EA
Corynebacterium xerosis = Corynebacterium xerosis ATCC 373, medium M-H
Klebsiella aerogenes = Klebsiella aerogenes NCTC 8172, medium NA
Staphylococcus lactis = Staphylococcus lactis NCTC 8340, medium NA
Enterococcus arabinosus = Enterococcus arabinosus ATCC 8014, medium MACA
Pasteurella septica = Pasteurella septica NCTC 948, medium NA
Microsporum canis = Microsporum canis ATCC 10214, medium SMA
[5] = system: Pseudomonas fluorescencens; conditions: Pseudomonas fluorescencens NCTC 4755, medium NA
Moraxella lwolffii = conditions: origin A, medium NA
Staphylococcus hominis = Staphylococcus hominis ATCC 27844, medium M-H
Enterobacter aerogenes = Enterobacter aerogenes ATCC 13048, medium M-H
Haemophilius influenca = Haemophilius influenca ATCC 33391, medium B-A
Vibrio cholerae = conditions: origin A, medium NA
Micrococcus luteus = Micrococcus luteus ATCC 7468, medium M-H
Sporosarcina urea = Sporosarcina urea ATCC 6473, medium BHI-A
Actinomyces bovis = conditions: origin A, medium NA
Shigella dysenteriae = Shigella dysenteriae NCTC 2249, medium NA
Streptococcus pneumoniae = Streptococcus pneumoniae ATCC 33400, medium M-H
[6] = system: Corynebacterium minutissimum; conditions: Corynebacterium minutissimum ATCC 23348, medium BHI-A

Question: Which Microbiostatic effect [1] does the source give for `Oc1cc(Cl)ccc1Oc1ccc(Cl)cc1Cl` [IRGAGUARD B 1000, 2,4,4′-trichloro-2′-hydroxydiphenyl ether] here?
Answer: 3.0 ppm

Question: And the Microbiostatic effect [2]?
Answer: 100.0 ppm

Question: What about the Microbiostatic effect (Citrobacter freundii) of the same compound?
Answer: 3.0 ppm

Question: What about the Microbiostatic effect (Bacillus subtilis) of the same compound?
Answer: 0.1 ppm

Question: What about the Microbiostatic effect (Sarcina urea) of the same compound?
Answer: 0.1 ppm

Question: And the Microbiostatic effect (Trochophyton tonsurans)?
Answer: 10 ppm

Question: And the Microbiostatic effect (Listeria monocytogenes)?
Answer: 1.0 ppm

Question: What about the Microbiostatic effect (Staphylococcus albus) of the same compound?
Answer: 0.1 ppm

Question: What about the Microbiostatic effect (Trichophyton cutaneum) of the same compound?
Answer: 10 ppm

Question: What about the Microbiostatic effect (Aspergillus niger) of the same compound?
Answer: 30 ppm

Question: What about the Microbiostatic effect (Lactobacillus fermenti) of the same compound?
Answer: 33.0 ppm

Question: What about the Microbiostatic effect (Clostridium sporogenes) of the same compound?
Answer: 10.0 ppm

Question: And the Microbiostatic effect [3]?
Answer: 1 ppm

Question: And the Microbiostatic effect [4]?
Answer: <0.125 ppm

Question: What about the Microbiostatic effect (Streptococcus agalactiae) of the same compound?
Answer: 3.0 ppm

Question: What about the Microbiostatic effect (Streptococcus pyogenes) of the same compound?
Answer: 4.0 ppm

Question: And the Microbiostatic effect (Corynebacterium acnes)?
Answer: 3.0 ppm

Question: And the Microbiostatic effect (Salmonella paratyphi A)?
Answer: 0.3 ppm

Question: What about the Microbiostatic effect (Clostridium perfringens) of the same compound?
Answer: 10.0 ppm

Question: And the Microbiostatic effect (Loefferella pseudomallei)?
Answer: 1.0 ppm

Question: And the Microbiostatic effect (Clostridium tetani)?
Answer: 3.0 ppm

Question: What about the Microbiostatic effect (Salmonella paratyphi B; Salmonella paratyphi B NCTC 3176, medium NA) of the same compound?
Answer: 0.3 ppm

Question: And the Microbiostatic effect (Salmonella paratyphi B; Salmonella paratyphi B NCTC 5704, medium NA)?
Answer: 0.1 ppm

Question: What about the Microbiostatic effect (Corynebacterium xerosis) of the same compound?
Answer: 5.0 ppm

Question: What about the Microbiostatic effect (Klebsiella aerogenes) of the same compound?
Answer: 0.3 ppm

Question: What about the Microbiostatic effect (Staphylococcus lactis) of the same compound?
Answer: 3.0 ppm

Question: What about the Microbiostatic effect (Enterococcus arabinosus) of the same compound?
Answer: 33.0 ppm

Question: What about the Microbiostatic effect (Pasteurella septica) of the same compound?
Answer: 0.1 ppm

Question: What about the Microbiostatic effect (Microsporum canis) of the same compound?
Answer: 3 ppm

Question: What about the Microbiostatic effect [5] of the same compound?
Answer: >100 ppm

Question: And the Microbiostatic effect (Shigella flexneri; Shigella flexneri NCTC 8192, medium NA)?
Answer: 0.3 ppm

Question: And the Microbiostatic effect (Shigella flexneri; Shigella flexneri NCTC 8204, medium NA)?
Answer: 0.1 ppm

Question: And the Microbiostatic effect (Moraxella lwolffii)?
Answer: 0.1 ppm

Question: What about the Microbiostatic effect (Staphylococcus hominis) of the same compound?
Answer: 1.0 ppm

Question: What about the Microbiostatic effect (Enterobacter aerogenes) of the same compound?
Answer: 0.5 ppm

Question: What about the Microbiostatic effect (Haemophilius influenca) of the same compound?
Answer: 2.0 ppm

Question: What about the Microbiostatic effect (Vibrio cholerae) of the same compound?
Answer: 10.0 ppm

Question: And the Microbiostatic effect (Micrococcus luteus)?
Answer: 4.0 ppm

Question: What about the Microbiostatic effect (Sporosarcina urea) of the same compound?
Answer: 0.1 ppm

Question: And the Microbiostatic effect (Actinomyces bovis)?
Answer: 1.0 ppm

Question: What about the Microbiostatic effect (Shigella dysenteriae) of the same compound?
Answer: 0.1 ppm

Question: And the Microbiostatic effect (Streptococcus pneumoniae)?
Answer: 4.0 ppm

Question: And the Microbiostatic effect [6]?
Answer: 3.0 ppm

Question: What about the Microbiostatic effect (Proteus vulgaris; Proteus vulgaris NCTC 4636, medium NA) of the same compound?
Answer: 0.3 ppm

Question: And the Microbiostatic effect (Proteus vulgaris; Proteus vulgaris NCTC 8313, medium NA)?
Answer: 0.1 ppm
